# Measurements published in US20240409585A1, “MACROCYCLIC IMMUNOMODULATORS” (priority 2021, published 2024).
# Numbered stars: 1 amine (or outer) side, 2 acyl side, 3 side chain; on linkers, the order of the positions; unused ones are H or OH. Bridge positions count the residues as written; N and C are the ends. Square brackets hold non-standard residues; d marks the D form. Peptide text beside a SMILES is read from it. * marks the point of attachment. ξ: configuration not given here. Tyr(3-NO2) = N[C@@H](Cc1ccc(O)c([N+](=O)[O-])c1)C(=O)O; X19 = Cc1cccc(-c2ccc(C[C@H](N[*:1])C(=O)[*:2])cc2)c1; Ala(morpholin-4-yl) = N[C@@H](CN1CCOCC1)C(=O)O; Phe(4-COOH) = N[C@@H](Cc1ccc(C(=O)O)cc1)C(=O)O; Phe(4-CH2NH2) = NCc1ccc(C[C@H](N)C(=O)O)cc1; Bip = N[C@@H](Cc1ccc(-c2ccccc2)cc1)C(=O)O; Phe(3-Br) = N[C@@H](Cc1cccc(Br)c1)C(=O)O; Phe(4-NH2) = Nc1ccc(C[C@H](N)C(=O)O)cc1; Phe(3-Me) = Cc1cccc(C[C@H](N)C(=O)O)c1; 4Pal = N[C@@H](Cc1ccncc1)C(=O)O; Cha = N[C@@H](CC1CCCCC1)C(=O)O; Cit = NC(=O)NCCC[C@H](N)C(=O)O; Ile(3ξ) = CCC(C)[C@H](N)C(=O)O; Thr(3ξ) = CC(O)[C@H](N)C(=O)O; Carboxymethyl = O=C(O)C*; NMeA = CN[C@@H](C)C(=O)O; Nle = CCCC[C@H](N)C(=O)O; Orn = NCCC[C@H](N)C(=O)O; Dab = NCC[C@H](N)C(=O)O; Dap = NC[C@H](N)C(=O)O; ξC = NC(CS)C(=O)O
# Biological target: T1, PE-labeled human PD-L1-Ig binding to Jurkat cell line over-expressing human PD-1 (Jurkat-PD-1) (Homo sapiens, UniProt Q15116)
# T1 construct: expressed in transfected cells; host or cells: Jurkat
# Experiment: Jurkat-PD-1 Cell Binding High-Content Screening Assay (CBA): Method 1
# Conditions: Jurkat-hPD-1 cells, PE-labeled PD-L1-Ig 20 nM final; read-out: Jurkat HPDL1 PD1 IC50 (uM) (Method 1)
# T1 sequence (Q15116 25-288): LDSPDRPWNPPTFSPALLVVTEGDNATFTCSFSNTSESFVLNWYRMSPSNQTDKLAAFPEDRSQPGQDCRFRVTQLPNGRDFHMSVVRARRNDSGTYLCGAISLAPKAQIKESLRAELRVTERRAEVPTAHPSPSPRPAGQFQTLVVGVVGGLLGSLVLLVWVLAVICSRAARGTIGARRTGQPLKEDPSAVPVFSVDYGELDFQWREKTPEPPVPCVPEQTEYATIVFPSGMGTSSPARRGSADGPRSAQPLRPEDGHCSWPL
row,IC50 [µM],SMILES
1,0.02,CC(C)C[C@@H]1NC(=O)[C@H](Cc2c[nH]c3ccccc23)NC(=O)[C@H](CC(=O)O)NC(=O)[C@H](Cc2ccc(O)c([N+](=O)[O-])c2)NC(=O)[C@H](Cc2ccccc2)NC(=O)CSC[C@@H](C(=O)N[C@@H](C)C(N)=O)NC(=O)[C@H](CO)NC(=O)[C@H](C(C)C)NC(=O)[C@H](CC(C)C)NC(=O)[C@H](CC(N)=O)NC(=O)[C@@H](C)NC(=O)[C@H](C)N(C)C(=O)[C@H](C(C)C)NC(=O)[C@H](Cc2ccc(-c3ccccc3)cc2)NC1=O [Compound 1738] ({CH2CO}-F[Tyr(3-NO2)]DWL[Bip]V[NMeA][dA]NLVSCA-NH2; thioether N-14)
2,0.11,CCC(C)[C@@H]1NC(=O)[C@H](Cc2ccc(-c3ccccc3)cc2)NC(=O)[C@H](C(C)C)NC(=O)[C@H](Cc2c[nH]c3ccccc23)NC(=O)[C@H](CC(=O)O)NC(=O)[C@H](Cc2ccc(O)cc2)NC(=O)[C@H](Cc2ccncc2)NC(=O)CSC[C@@H](C(=O)N[C@@H](CC(=O)O)C(=O)N[C@@H](CCN)C(=O)O)NC(=O)[C@H](C(C)O)NC(=O)[C@H](C(C)C)NC(=O)[C@H](CC2CCCCC2)NC(=O)[C@H](CC(N)=O)NC(=O)[C@@H](CC(C)C)NC(=O)[C@H](C)N(C)C1=O (stereo partly drawn) [Compound 2001] ({CH2CO}-[4Pal]YDWV[Bip][Ile(3ξ)][NMeA][dL]N[Cha]V[Thr(3ξ)]CD[Dab]-OH; thioether N-14)
3,0.21,Cc1cccc(C[C@@H]2NC(=O)[C@H](CC(=O)O)NC(=O)[C@H](Cc3ccc(OCC(=O)O)cc3)NC(=O)[C@H](CN3CCOCC3)NC(=O)CSC[C@@H](C(=O)N[C@@H](CCN)C(N)=O)NC(=O)[C@H](CCCN)NC(=O)[C@H](C(C)C)NC(=O)[C@H](Cc3cccc(Br)c3)NC(=O)[C@H](CCN)NC(=O)[C@@H](CC(C)C)NC(=O)[C@H](C)N(C)C(=O)[C@H](CCC(N)=O)NC(=O)[C@H](Cc3ccc(-c4ccccc4)cc3)NC(=O)[C@H](Cc3ccc(C(=O)O)cc3)NC2=O)c1 [Example 2291] ({CH2CO}-[Ala(morpholin-4-yl)]Y(Carboxymethyl)D[Phe(3-Me)][Phe(4-COOH)][Bip]Q[NMeA][dL][Dab][Phe(3-Br)]V[Orn]C[Dab]-NH2; thioether N-14)
4,0.03,CC(C)C[C@@H]1NC(=O)[C@H](CCN)NC(=O)[C@@H](CC(C)C)NC(=O)[C@H](C)N(C)C(=O)[C@H](C(C)C)NC(=O)[C@H](Cc2ccc(-c3ccccc3)cc2)NC(=O)[C@H](C(C)C)NC(=O)[C@H](Cc2c[nH]c3ccccc23)NC(=O)[C@H](CC(=O)O)NC(=O)[C@H](Cc2ccc(OCC(=O)O)cc2)NC(=O)[C@H](CN)NC(=O)CSC[C@@H](C(=O)N[C@@H](C)C(N)=O)NC(=O)[C@H]([C@@H](C)O)NC(=O)[C@H](C(C)C)NC1=O [Compound 1447] ({CH2CO}-[Dap]Y(Carboxymethyl)DWV[Bip]V[NMeA][dL][Dab]LVTCA-NH2; thioether N-14)
5,0.02,CC(C)C[C@@H]1NC(=O)[C@H](Cc2c[nH]c3ccccc23)NC(=O)[C@H](CC(=O)O)NC(=O)[C@H](Cc2ccc(O)cc2)NC(=O)[C@H](Cc2ccccc2)NC(=O)CSC[C@@H](C(=O)N[C@@H](C)C(N)=O)NC(=O)[C@H](CO)NC(=O)[C@H](C(C)C)NC(=O)[C@H](CC(C)C)NC(=O)[C@H](CCCCN)NC(=O)[C@@H](C)NC(=O)[C@H](C)N(C)C(=O)[C@H](C(C)C)NC(=O)[C@H](Cc2ccc(-c3ccccc3)cc2)NC1=O [Compound 1748] ({CH2CO}-FYDWL[Bip]V[NMeA][dA]KLVSCA-NH2; thioether N-14)
6,0.16,CC[C@H](C)[C@@H]1NC(=O)[C@H](CC(C)C)NC(=O)[C@H](CCCNC(=N)N)NC(=O)[C@@H](CC(C)C)NC(=O)[C@H](C)N(C)C(=O)[C@H](CCCNC(=N)N)NC(=O)[C@H](Cc2ccc(-c3ccccc3)cc2)NC(=O)[C@H](C(C)C)NC(=O)[C@H](Cc2c[nH]c3ccccc23)NC(=O)[C@H](CC(=O)O)NC(=O)[C@H](Cc2ccc(O)cc2)NC(=O)[C@H](Cc2ccccc2)NC(=O)CSC[C@@H](C(=O)N[C@@H](C)C(N)=O)NC(=O)[C@H]([C@@H](C)O)NC1=O [Compound 1118] ({CH2CO}-FYDWV[Bip]R[NMeA][dL]RLITCA-NH2; thioether N-14)
7,0.35,CCC(C)[C@@H]1NC(=O)[C@H](Cc2ccc(-c3ccccc3)cc2)NC(=O)[C@H](C(C)C)NC(=O)[C@H](Cc2c[nH]c3ccccc23)NC(=O)[C@H](CC(N)=O)NC(=O)[C@H](Cc2ccc(O)cc2)NC(=O)[C@H](CC(N)=O)NC(=O)CSCC(C(=O)NCC(N)=O)NC(=O)[C@H](C(C)O)NC(=O)[C@H](C(C)C)NC(=O)[C@H](CC2CCCCC2)NC(=O)[C@H](CC(N)=O)NC(=O)[C@@H](CC(C)C)NC(=O)[C@H](C)N(C)C1=O (stereo partly drawn) [Compound 2066] ({CH2CO}-NYNWV[Bip][Ile(3ξ)][NMeA][dL]N[Cha]V[Thr(3ξ)][ξC]G-NH2; thioether N-14)
8,0.02,CC(C)C[C@@H]1NC(=O)[C@H](CCN)NC(=O)[C@@H](CC(C)C)NC(=O)[C@H](C)N(C)C(=O)[C@H](CCCNC(N)=O)NC(=O)[C@H](Cc2ccc(-c3ccccc3)cc2)NC(=O)[C@H](C(C)C)NC(=O)[C@H](Cc2c[nH]c3ccccc23)NC(=O)[C@H](CC(=O)O)NC(=O)[C@H](Cc2ccc(CN)cc2)NC(=O)[C@H](CC(N)=O)NC(=O)CSC[C@@H](C(=O)N[C@@H](C)C(N)=O)NC(=O)[C@H]([C@@H](C)O)NC(=O)[C@H](C(C)C)NC1=O [Compound 1322] ({CH2CO}-N[Phe(4-CH2NH2)]DWV[Bip][Cit][NMeA][dL][Dab]LVTCA-NH2; thioether N-14)
9,0.01,CCC(C)[C@@H]1NC(=O)[C@H](Cc2ccc(-c3ccccc3)cc2)NC(=O)[C@H](CC(C)C)NC(=O)[C@H](Cc2c[nH]c3ccccc23)NC(=O)[C@H](CC(=O)O)NC(=O)[C@H](Cc2ccc(C(=O)O)cc2)NC(=O)[C@H](Cc2ccc(OCC(=O)O)cc2)NC(=O)CSC[C@@H](C(=O)N[C@@H](CCN)C(N)=O)NC(=O)[C@H]([C@@H](C)O)NC(=O)[C@H](C(C)C)NC(=O)[C@H](CC2CCCCC2)NC(=O)[C@H](CCN)NC(=O)[C@@H](CC(C)C)NC(=O)[C@H](C)N(C)C1=O (stereo partly drawn) [Compound 1926] ({CH2CO}-Y(Carboxymethyl)[Phe(4-COOH)]DWL[Bip][Ile(3ξ)][NMeA][dL][Dab][Cha]VTC[Dab]-NH2; thioether N-14)
10,0.14,CCCC[C@@H]1NC(=O)[C@H](CCCNC(=N)N)NC(=O)[C@@H](CC(C)C)NC(=O)[C@H](C)N(C)C(=O)[C@H]([C@@H](C)CC)NC(=O)[C@H](Cc2ccc(-c3ccccc3)cc2)NC(=O)[C@H](C(C)C)NC(=O)[C@H](Cc2c[nH]c3ccccc23)NC(=O)[C@H](CC(=O)O)NC(=O)[C@H](Cc2ccc(O)cc2)NC(=O)[C@H](Cc2ccccc2)NC(=O)CSC[C@@H](C(=O)N[C@@H](C)C(N)=O)NC(=O)[C@H]([C@@H](C)O)NC(=O)[C@H](C(C)C)NC1=O [Compound 1499] ({CH2CO}-FYDWV[Bip]I[NMeA][dL]R[Nle]VTCA-NH2; thioether N-14)
11,0.01,CCC(C)[C@@H]1NC(=O)[C@H](Cc2ccc(-c3ccccc3)cc2)NC(=O)[C@H](C(C)C)NC(=O)[C@H](Cc2cccc(C)c2)NC(=O)[C@H](CC(=O)O)NC(=O)[C@H](Cc2ccc(OCC(=O)O)cc2)NC(=O)[C@H](C(C)O)NC(=O)CSC[C@@H](C(=O)N[C@@H](CO)C(=O)O)NC(=O)[C@H](C(C)O)NC(=O)[C@H](C(C)C)NC(=O)[C@H](CC2CCCCC2)NC(=O)[C@H](CCN)NC(=O)[C@@H](CC(C)C)NC(=O)[C@H](C)N(C)C1=O (stereo partly drawn) [Compound 2232] ({CH2CO}-[Thr(3ξ)]Y(Carboxymethyl)D[Phe(3-Me)]V[Bip][Ile(3ξ)][NMeA][dL][Dab][Cha]V[Thr(3ξ)]CS-OH; thioether N-14)
12,0.04,CC(C)C[C@@H]1NC(=O)[C@H](CCCNC(=N)N)NC(=O)[C@@H](CC(C)C)NC(=O)[C@H](C)N(C)C(=O)[C@H](CCCNC(=N)N)NC(=O)[C@H](Cc2ccc(-c3ccccc3)cc2)NC(=O)[C@H](C(C)C)NC(=O)[C@H](Cc2c[nH]c3ccccc23)NC(=O)[C@H](CC(=O)O)NC(=O)[C@H](Cc2ccc(N)cc2)NC(=O)[C@H](Cc2ccccc2)NC(=O)CSC[C@@H](C(=O)N[C@@H](C)C(N)=O)NC(=O)[C@H]([C@@H](C)O)NC(=O)[C@H](C(C)C)NC1=O [Compound 1082] ({CH2CO}-F[Phe(4-NH2)]DWV[Bip]R[NMeA][dL]RLVTCA-NH2; thioether N-14)
13,0.09,Cc1cccc(C[C@@H]2NC(=O)[C@H](CC(=O)O)NC(=O)[C@H](Cc3ccc(C(=O)O)cc3)NC(=O)[C@H](Cc3ccc(OCC(=O)O)cc3)NC(=O)CSC[C@@H](C(N)=O)NC(=O)[C@H]([C@@H](C)O)NC(=O)[C@H](C(C)C)NC(=O)[C@H](CC(C)C)NC(=O)[C@H](CC(N)=O)NC(=O)[C@@H](CC(C)C)NC(=O)[C@H](C)N(C)C(=O)[C@H](C(C)C)NC(=O)[C@H](Cc3ccc(-c4ccccc4)cc3)NC(=O)[C@H](CC(C)C)NC2=O)c1 [Compound 1682] ({CH2CO}-Y(Carboxymethyl)[Phe(4-COOH)]D[Phe(3-Me)]L[Bip]V[NMeA][dL]NLVTC-NH2; thioether N-14)
14,0.11,Cc1cccc(-c2ccc(C[C@@H]3NC(=O)[C@H](CC(C)C)NC(=O)[C@H](Cc4c[nH]c5ccccc45)NC(=O)[C@H](CC(=O)O)NC(=O)[C@H](Cc4ccc(O)cc4)NC(=O)[C@H](Cc4ccccc4)NC(=O)CSC[C@@H](C(=O)N[C@@H](C)C(N)=O)NC(=O)[C@H](CO)NC(=O)[C@H](C(C)C)NC(=O)[C@H](CC(C)C)NC(=O)[C@H](CC(N)=O)NC(=O)[C@@H](C)NC(=O)[C@H](C)N(C)C(=O)[C@H](C(C)C)NC3=O)cc2)c1 [Compound 1788] ({CH2CO}-FYDWL[X19]V[NMeA][dA]NLVSCA-NH2; thioether N-14)
15,0.87,Cc1cccc2c(CC3NC(=O)[C@H](CC(=O)O)NC(=O)[C@H](Cc4ccc(O)cc4)NC(=O)[C@H](Cc4ccccc4)NC(=O)CSC[C@@H](C(=O)N[C@@H](C)C(N)=O)NC(=O)[C@H]([C@@H](C)O)NC(=O)[C@H](C(C)C)NC(=O)[C@H](CC(C)C)NC(=O)[C@H](CCCNC(=N)N)NC(=O)[C@@H](CC(C)C)NC(=O)[C@H](C)N(C)C(=O)[C@H](CCCNC(=N)N)NC(=O)[C@H](Cc4ccc(-c5ccccc5)cc4)NC(=O)[C@H](C(C)C)NC3=O)n[nH]c12 (mixture of isomers) [Compound 1105]
